We go through one compound from patent US12070505B2, “Targeted peptide-drug conjugates” (priority 2021, dated 2024).

One series deals with MCF-7 cells. The experiment in a line: MTS cytotoxicity assay of [(WR)8WKβA]-Dox, MCF-7. The series is classed as cell-based. The protocol:
(§1) Cytotoxic activity of the synthesized conjugate and noncovalent mixtures of cyclic [WR]9+Dox was determined in SK-OV-3, MDA-MB-231, MCF-7, MES-SA/MX2, and H9C2 cells. […] An appropriate growth medium was used for each cell line (for SK-OV-3: McCoy's […] with L-glutamine containing fetal bovine serum (FBS) (10%) and penicillin or streptomycin (1%); for MDA-MB-231 and MCF-7 cells: DMEM/F12 (1:1) (1×) with L-Glutamine and 15 mM HEPES containing FBS (10%) and penicillin or streptomycin (1%), and for MES-SA/MX2 and H9C2 cells: Minimum Essential Medium Eagle with Earle's salts and sodium bicarbonate, without L-glutamine containing FBS (10%), and penicillin or streptomycin (1%)). The cells were seeded in a complete growth medium 24 h prior to the experiment. […] The incubation was continued for 3 h.
(Tetrazolium assays rely on reduction of a dye to a coloured formazan, in cell work by metabolically active cells.)

In series [1] the test system is MES-SA/MX2 cells. The experiment in a line: MTS cytotoxicity assay of [(WR)8WKβA]-Dox, MES-SA/MX2. As to conditions: MES-SA/MX2; for reduction in cell viability: 24 h. The protocol:
as §1

The test system of a further series is H9C2 myocardium cells. As to conditions: 24 h. As for the experimental part:
as §1

The next series has as its system H9C2 cells. The experiment in a line: Confocal microscopy uptake in H9C2 (Example 2). The series is classed as cell-based, rat. As to conditions: 5 μM, 24 h. As for the experimental part:
Confocal Microscopy. MDA-MB-231, SK-OV-3, MES-SA/MX2, and H9C2 cells (7×10^4 cells/well) were seeded with a medium on a coverslip 24 h prior to the experiment in six well plates. After 24 h, the medium was changed with opti-MEM. The cells were treated with Dox and peptide-Dox conjugate (5 μM) in opti-MEM for 24 h. After 24 h incubation, the media were removed, and cells were washed three times with PBS in each well. Then, the cells were fixed with 3.7% formaldehyde for 10 min, followed by washing three times with PBS (pH 7.6) for 5 min. DAPI (40 μL) for staining the nuclei was placed on a microscope slide, and it was covered with the coverslip with the cell-attached side facing down. The slides were left standing horizontally in a dark place with airflow to allow faster drying. The cells were photographed using Nikon Instruments A1 Confocal Laser Microscope Series and NIS-Elements software (AR 4.30.02, 64 bit). The scan mode was selected as Galvano. The magnification and resolution were set at 40× and 1024, respectively.

Series [2] has as its system MDA-MB-231 cells. The series is described as follows: Differential extraction of Dox in nuclear and cytoplasmic compartments (HPLC). In kind it is cell-based. As to conditions: 50 μM; 4 h exposure. The protocol:
Differential Extraction of Dox in Nuclear and Cytoplasmic Compartments. In order to confirm nuclear delivery of peptide-conjugated Dox, in addition to confocal microscopy, a differential nuclear and cytoplasmic extraction was performed. […] The cells were then pelleted at 2000 rpm for 5 min. After removing the supernatant, the cells were resuspended in Dounce buffer containing protease inhibitors. The cell suspension to be used was incubated on ice for 15 min before being spiked with cold 10% NP-40 and vortexed for 10 s. The suspension was centrifuged at 10,000 rpm for 10 min at 4° C. to pellet the nuclei. The supernatant was isolated for cytoplasmic extraction. The nuclear pellet was washed in cold PBS twice and centrifuged to remove the supernatant. The isolated nuclei were then lysed using RIPA buffer containing protease inhibitors. The nuclear and cytoplasmic extractions were analyzed by analytical HPLC to differentially quantify free Dox (or Dox released from the conjugates) and peptide-conjugate Dox using an Agilent Zorbax SB-C18 (4.6×150 mm) column. The column was equilibrated with 0.1% TFA-water (solvent A). The elution was performed at a flow rate of 1 mL/min using a gradient of acetonitrile from 0 to 35% in 50 min, with the absorbance measured at 490 nm.

The subject of series [3] is MDA-MB-231 cells. The experiment in a line: FACS cellular uptake with endocytosis inhibitors, MDA-MB-231. In kind it is cell-based. As to conditions: 5 μM, 3 h. The protocol:
Fluorescence-Activated Cell Sorter (FACS) Analysis of Cellular Uptake in the Presence of Endocytosis Inhibitors. A flow cytometry study was conducted in the presence of endocytosis inhibitors such as nystatin, chlorpromazine, chloroquine, and methyl β-cyclodextrin to determine whether the cellular uptake for the peptide-Dox was endocytosis-dependent. MDA-MB-231 (5×10^5 cells/well) were seeded in the medium 24 h prior to the experiment in six well plates, and after 24 h the medium was changed with Opti-MEM. […] After 3 h incubation, the media containing the compounds were removed. Next, the cells were digested with 0.05% trypsin/EDTA (0.53 mM) for 5 min to remove any artificial surface binding, centrifuged at 2500 RPM for 5 min, and then collected as the precipitant. Then the cells were washed two times with PBS, resuspended in flow cytometry buffer, and transferred to the flow cytometry tubes through the 35 μm Strainer Mesh cap. Finally, the cells were analyzed by flow cytometry (FACSCalibur Becton Dickinson) using the propidium iodide channel and CellQuest software. The data presented were based on the mean fluorescence intensity for 10,000 cells collected. All assays were performed in triplicate.

Series [4] deals with MES-SA/MX2 cells. The experiment in a line: FACS cellular uptake with endocytosis inhibitors, MES-SA/MX2. In kind it is cell-based. As to conditions: 5 μM, 3 h.
For the next series, the system named is CCRF-CEM cells. As to conditions: 5 μM.
Another series in a line: in vitro. As to conditions: human, 25% human serum.

Where two headings read alike, the source gives them in different places. Residues, ends and D or L forms follow the SMILES beside them. Groups on a side chain read outwards from the residue. *: point of attachment. Glutaryl(5-(14-O-Dox)) = COc1cccc2c1C(=O)c1c(O)c3c(c(O)c1C2=O)C[C@@](O)(C(=O)COC(=O)CCCC(=O)*)C[C@@H]3O[C@H]1C[C@H](N)[C@H](O)[C@H](C)O1; βAla = NCCC(=O)O

Protocol for CCRF-CEM cells: Intracellular Hydrolysis. […] Cells were grown with serum-free RPMI medium in 75 cm^2 culture flasks to approximately 70-80% confluence (1.37×10^7 cells/mL). […] Then the cells were incubated at 37° C. After 4 h, the medium containing the conjugate was aspirated, and cells were washed three times with PBS before adding a fresh serum-free medium. The cells were first partitioned/transferred to culture plates (six wells) contained 1.37×10^7 cells per well in 5 mL of medium, then incubated for the indicated time. After incubation, the cells were collected using centrifugation. After centrifugation, the medium was removed by decantation. The cell pellets were washed with ice-cold PBS to remove any remaining medium. The cell pellets were then completely extracted with an equal volume of methanol, chloroform, and isopropanol mixture (4:3:1 v/v/v) and finally filtered through 0.2 μm filters.
Protocol for in vitro: Human serum (250 μL) was diluted by adding sterile water (650 μL) and conjugate stock solution (100 μL) to give a sample with 25% human serum and 5 μM conjugate. The sample was kept at 37° C. in an incubator to mimic human body temperature. At regular time intervals, aliquots (100 μL) were taken and diluted with methanol (200 μL). After centrifugation (7000 RPM) of the mixture for 10 min, the supernatant was analyzed by analytical HPLC at 495 nm, and the major HPLC peaks were analyzed by mass spectrometry. The mobile phase used was acetonitrile/water with 0.1% TFA, with a gradient of 20-45% and a flow rate of 1 mL/min in 50 min. The percentage of intact conjugate and the release of the free drug were plotted against incubation time. The AUC obtained after each run was used to confirm the conjugate's degradation, and t1/2 (the time needed to hydrolyze half of the initial conjugate in human serum) was calculated from the graph plotted as AUC versus incubation time.

Usually half-life stands for the time needed for the level to fall by half in the phase considered. Low values mean fast loss, high ones slow loss. What is called fraction remaining is the share of the starting amount still present when the sample was taken. A high value points to greater stability. `COc1cccc2c1C(=O)c1c(O)c3c(c(O)c1C2=O)C[C@@](O)(C(=O)COC(=O)CCCC(=O)NCCC(=O)NCCCC[C@@H]1NC(=O)[C@H](Cc2c[nH]c4ccccc24)NC(=O)[C@H](CCCNC(=N)N)NC(=O)[C@H](Cc2c[nH]c4ccccc24)NC(=O)[C@H](CCCNC(=N)N)NC(=O)[C@H](Cc2c[nH]c4ccccc24)NC(=O)[C@H](CCCNC(=N)N)NC(=O)[C@H](Cc2c[nH]c4ccccc24)NC(=O)[C@H](CCCNC(=N)N)NC(=O)[C@H](Cc2c[nH]c4ccccc24)NC(=O)[C@H](CCCNC(=N)N)NC(=O)[C@H](Cc2c[nH]c4ccccc24)NC(=O)[C@H](CCCNC(=N)N)NC(=O)[C@H](Cc2c[nH]c4ccccc24)NC(=O)[C@H](CCCNC(=N)N)NC(=O)[C@H](Cc2c[nH]c4ccccc24)NC(=O)[C@H](CCCNC(=N)N)NC(=O)[C@H](Cc2c[nH]c4ccccc24)NC1=O)C[C@@H]3O[C@H]1C[C@H](N)[C@H](O)[C@H](C)O1` [[(WR)8WKβA]-Dox] (cyclo(K([βAla-Glutaryl(5-(14-O-Dox))])WRWRWRWRWRWRWRWRW)): the “reduction of cell proliferation” value is 28% in the series on MCF-7 cells (1 μM, 24 h); 70% with MCF-7 cells (1 μM, 72 h); 55% in the series with MCF-7 cells (5 μM, 24 h); 77% with MCF-7 cells (5 μM, 72 h); 56% in the series on MCF-7 cells (10 μM, 24 h); 77% in the series with MCF-7 cells (10 μM, 72 h). In addition, the “reduction in cell viability” value is 64% in the series on MES-SA/MX2 cells [1] (1 μM), 50% with MES-SA/MX2 cells [1] (5 μM) and 39% in the series with MES-SA/MX2 cells [1] (10 μM). The “Dox-resistant cell survival / viability” value with MES-SA/MX2 cells [1] (5 μM, 72 h) was 8%. The “cytotoxicity” value is “no significant cytotoxicity” with H9C2 myocardium cells (1 μM and 5 μM); “comparable to Dox” in the series on H9C2 myocardium cells (10 μM). The “uptake in heart cells (confocal microscopy, words)” value in the series on H9C2 cells was “did not show any significant uptake”. Moreover, the “total concentration of Dox (conjugated and released) in the nucleus” value in the series with MDA-MB-231 cells [2] was “higher than free Dox”. In addition, the “cellular uptake in presence of nystatin and chloroquine” value in the series with MDA-MB-231 cells [3] and in the series with MES-SA/MX2 cells [4] was “not reduced significantly” each time. For the same compound, the “free Dox released intracellularly” value is on record as “More than 36%” in the series with CCRF-CEM cells (within 12 h) and “Approximately 100%” with CCRF-CEM cells (within 72 h). In addition, the half-life at 5 μM in “in vitro” is ~360 min. Also, the fraction remaining at 3 h, 5 μM in “in vitro” was determined as 80%.
